Measured values published in PubChem BioAssay AID248 (DTP/NCI, 2004).
Several values for one entry are separate records, joined by “and”; a condition that tells them apart may be missing. Identical values can stand only once. Toxic doses and inconclusive results are not listed. Rule as the data show it: active = T/C of 150% or more; inactive = T/C below 125%.

Tested on: L1210 leukemia ip in BDF1 mice, survival T/C
Experiment: NCI In Vivo Anticancer Drug Screen. Data for tumor model L1210 Leukemia (intraperitoneal) in B6D2F1 (BDF1) mice
Details: endpoint: mean survival time, higher = longer survival
Procedure, shortened: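 Transplantable tumor model; survival measured in treated vs vehicle control mice. Value = treated/control.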

[1] = dose: 100.0 mg/kg/injection, schedule: Q04DX002 (ip), vehicle: saline with Tween-80
[2] = dose: 200.0 mg/kg/injection, schedule: Q04DX002 (ip), vehicle: saline with Tween-80
[3] = dose: 100.0 mg/kg/injection, schedule: Q01DX001 (ip), vehicle: saline
[4] = dose: 200.0 mg/kg/injection, schedule: Q01DX001 (ip), vehicle: saline
[5] = dose: 400.0 mg/kg/injection, schedule: Q01DX001 (ip), vehicle: saline
[6] = dose: 50.0 mg/kg/injection, schedule: Q01DX009 (ip), vehicle: saline
[7] = dose: 100.0 mg/kg/injection, schedule: Q04DX003 (ip), vehicle: saline with Tween-80
[8] = dose: 200.0 mg/kg/injection, schedule: Q04DX003 (ip), vehicle: saline with Tween-80
[9] = dose: 100.0 mg/kg/injection, schedule: Q04DX002 (ip), vehicle: saline
[10] = dose: 100.0 mg/kg/injection, schedule: Q04DX003 (ip), vehicle: saline
[11] = dose: 200.0 mg/kg/injection, schedule: Q04DX002 (ip), vehicle: saline
[12] = dose: 200.0 mg/kg/injection, schedule: Q04DX003 (ip), vehicle: saline
[13] = dose: 400.0 mg/kg/injection, schedule: Q04DX003 (ip), vehicle: saline
[14] = dose: 50.0 mg/kg/injection, schedule: Q01DX001 (ip), vehicle: saline
[15] = dose: 100.0 mg/kg/injection, schedule: Q01DX001 (ip), vehicle: other
[16] = dose: 200.0 mg/kg/injection, schedule: Q01DX001 (ip), vehicle: other
[17] = dose: 400.0 mg/kg/injection, schedule: Q01DX001 (ip), vehicle: other
[18] = dose: 100.0 mg/kg/injection, schedule: Q04DX003 (ip), vehicle: Klucel (hydroxypropylcellulose) (HPC)
[19] = dose: 200.0 mg/kg/injection, schedule: Q04DX003 (ip), vehicle: Klucel (hydroxypropylcellulose) (HPC)
[20] = dose: 400.0 mg/kg/injection, schedule: Q04DX003 (ip), vehicle: Klucel (hydroxypropylcellulose) (HPC)

Measured: T/C

Cc1ccc(NC(=O)NCCCCl)cc1
inactive: dose: 50.0 mg/kg/injection, schedule: Q01DX001 (ip), vehicle: carboxymethylcellulose (CMC) 98 % of control | dose: 100.0 mg/kg/injection, schedule: Q01DX001 (ip), vehicle: carboxymethylcellulose (CMC) 110 % of control | dose: 200.0 mg/kg/injection, schedule: Q01DX001 (ip), vehicle: carboxymethylcellulose (CMC) 98 % of control | dose: 400.0 mg/kg/injection, schedule: Q01DX001 (ip), vehicle: carboxymethylcellulose (CMC) 106 % of control

CCCCCCCCCCCCCCCC[As]1c2ccccc2Nc2ccccc21
inactive: [1] 86 % of control | [2] 89 % of control | dose: 400.0 mg/kg/injection, schedule: Q04DX002 (ip), vehicle: saline with Tween-80 86 % of control

NC(=O)C(F)(F)c1ccccc1
inactive: [3] 105 % of control | [4] 103 % of control | [5] 102 % of control

O=C1CCC(=O)N1CCC(=O)N(C(=O)NC1CCCCC1)C1CCCCC1
inactive: [6] 98 % of control | dose: 100.0 mg/kg/injection, schedule: Q01DX009 (ip), vehicle: saline 95 % of control | [7] 100 % of control | dose: 200.0 mg/kg/injection, schedule: Q01DX009 (ip), vehicle: saline 101 % of control | [8] 106 % of control | dose: 400.0 mg/kg/injection, schedule: Q01DX009 (ip), vehicle: saline 98 % of control | dose: 400.0 mg/kg/injection, schedule: Q04DX003 (ip), vehicle: saline with Tween-80 100 % of control

CCS(=O)CC
inactive: [9] 106 % of control | [10] 101 % of control and 108 % of control | [11] 89 % of control | [12] 94 % of control and 97 % of control | dose: 400.0 mg/kg/injection, schedule: Q04DX002 (ip), vehicle: saline 95 % of control | [13] 101 % of control and 104 % of control

CCOP(=O)(OCC)Oc1cc(C)c(SC)c(C)c1
inactive: dose: 75.0 mg/kg/injection, schedule: Q01DX001 (ip), vehicle: saline 89 % of control | dose: 150.0 mg/kg/injection, schedule: Q01DX001 (ip), vehicle: saline 101 % of control

COCCOc1nccc(N)n1
inactive: dose: 25.0 mg/kg/injection, schedule: Q01DX001 (ip), vehicle: saline 97 % of control | [14] 97 % of control | [3] 100 % of control

CC(=O)CC(C)=NCCN=C(C)CC(C)=O.[Ni]
inactive: dose: 1.56 mg/kg/injection, schedule: Q01DX009 (ip), vehicle: gum acacia 103 % of control | dose: 3.12 mg/kg/injection, schedule: Q01DX009 (ip), vehicle: gum acacia 104 % of control | dose: 6.25 mg/kg/injection, schedule: Q01DX009 (ip), vehicle: gum acacia 100 % of control | dose: 12.5 mg/kg/injection, schedule: Q01DX009 (ip), vehicle: gum acacia 99 % of control | dose: 12.5 mg/kg/injection, schedule: Q04DX003 (ip), vehicle: gum acacia 117 % of control | dose: 25.0 mg/kg/injection, schedule: Q04DX003 (ip), vehicle: gum acacia 118 % of control | dose: 50.0 mg/kg/injection, schedule: Q04DX003 (ip), vehicle: gum acacia 103 % of control

C[N+](C)(C)c1ccc(/C=C2\C=Cc3ccccc32)cc1
inactive: dose: 15.0 mg/kg/injection, schedule: Q01DX001 (ip), vehicle: carboxymethylcellulose (CMC) 108 % of control | dose: 30.0 mg/kg/injection, schedule: Q01DX001 (ip), vehicle: carboxymethylcellulose (CMC) 102 % of control

O=c1[nH][nH]c(=O)c2c([N+](=O)[O-])cccc12
inactive: [15] 90 % of control | [16] 92 % of control | [17] 87 % of control

CC(=O)[O][Sn]([CH3])([CH3])[CH3]
inactive: dose: 0.18 mg/kg/injection, schedule: Q01DX009 (ip), vehicle: Klucel (hydroxypropylcellulose) (HPC) 93 % of control | dose: 0.37 mg/kg/injection, schedule: Q01DX009 (ip), vehicle: Klucel (hydroxypropylcellulose) (HPC) 96 % of control | dose: 0.75 mg/kg/injection, schedule: Q01DX009 (ip), vehicle: Klucel (hydroxypropylcellulose) (HPC) 104 % of control

COc1cc([N+](=O)[O-])ccc1NC(=O)C(Br)C(Br)C(=O)O (stereo not drawn)
inactive: dose: 100.0 mg/kg/injection, schedule: Q01DX009 (ip), vehicle: other 94 % of control

O=c1[nH][nH]c(=O)n1-c1ccccc1
inactive: dose: 25.0 mg/kg/injection, schedule: Q01DX009 (ip), vehicle: saline with Tween-80 96 % of control | dose: 50.0 mg/kg/injection, schedule: Q01DX009 (ip), vehicle: saline with Tween-80 94 % of control | dose: 100.0 mg/kg/injection, schedule: Q01DX009 (ip), vehicle: saline with Tween-80 100 % of control | [1] 100 % of control | dose: 177.0 mg/kg/injection, schedule: Q04DX002 (ip), vehicle: saline with Tween-80 95 % of control | dose: 200.0 mg/kg/injection, schedule: Q01DX009 (ip), vehicle: saline with Tween-80 93 % of control | [2] 103 % of control | dose: 266.0 mg/kg/injection, schedule: Q04DX002 (ip), vehicle: saline with Tween-80 98 % of control | dose: 400.0 mg/kg/injection, schedule: Q01DX009 (ip), vehicle: saline with Tween-80 93 % of control | dose: 600.0 mg/kg/injection, schedule: Q04DX002 (ip), vehicle: saline with Tween-80 95 % of control

C(CCCCc1nn[nH]n1)CCCc1nn[nH]n1
inactive: [18] 94 % of control | [19] 103 % of control | [20] 91 % of control

c1ccc2c(c1)-c1cccc3cccc-2c13
inactive: dose: 100.0 mg/kg/injection, schedule: Q01DX009 (ip), vehicle: Klucel (hydroxypropylcellulose) (HPC) 95 % of control | [18] 95 % of control | dose: 200.0 mg/kg/injection, schedule: Q01DX009 (ip), vehicle: Klucel (hydroxypropylcellulose) (HPC) 95 % of control | [19] 95 % of control | dose: 400.0 mg/kg/injection, schedule: Q01DX009 (ip), vehicle: Klucel (hydroxypropylcellulose) (HPC) 101 % of control | [20] 101 % of control

CC(C)CC(=O)c1ccccc1
inactive: dose: 50.0 mg/kg/injection, schedule: Q04DX002 (ip), vehicle: saline 104 % of control | [9] 97 % of control | [11] 111 % of control

NC(=S)N/N=C\c1ncnc2ccccc12
inactive: dose: 2.1 mg/kg/injection, schedule: Q03HX032 (ip), vehicle: saline with Tween-80 101 % of control | dose: 3.2 mg/kg/injection, schedule: Q03HX032 (ip), vehicle: saline with Tween-80 107 % of control | dose: 4.8 mg/kg/injection, schedule: Q03HX032 (ip), vehicle: saline with Tween-80 118 % of control | dose: 6.25 mg/kg/injection, schedule: Q01DX009 (ip), vehicle: saline 115 % of control | dose: 7.2 mg/kg/injection, schedule: Q03HX032 (ip), vehicle: saline with Tween-80 91 % of control | [14] 100 % of control | [6] 117 % of control | [3] 112 % of control | [4] 118 % of control | [5] 112 % of control

O=C(/C=C/c1ccccc1)c1ccc([N+](=O)[O-])cc1
inactive: dose: 100.0 mg/kg/injection, schedule: Q04DX002 (ip), vehicle: Klucel (hydroxypropylcellulose) (HPC) 94 % of control | dose: 200.0 mg/kg/injection, schedule: Q04DX002 (ip), vehicle: Klucel (hydroxypropylcellulose) (HPC) 94 % of control | dose: 400.0 mg/kg/injection, schedule: Q04DX002 (ip), vehicle: Klucel (hydroxypropylcellulose) (HPC) 108 % of control

CCN(C(C)=O)c1ccc(S(=O)(=O)Cl)cc1
inactive: [7] 97 % of control | [8] 88 % of control

CCCCCCCCCCCCOc1ccc(C(=O)O)cc1
inactive: dose: 50.0 mg/kg/injection, schedule: Q01DX001 (ip), vehicle: other 100 % of control | [15] 100 % of control | [16] 93 % of control | [17] 93 % of control

C=CCN1CCCC1=O
inactive: [10] 95 % of control | [12] 96 % of control | [13] 95 % of control
